Test results taken from patent publication US10881110B2, “Herbicidal compositions comprising isoxazolo[5,4-b]pyridines” (BASF SE, priority 2014, dated 2021).

Assays:
Experiment in all cases: greenhouse post-emergence herbicidal test
SASKR = format: in vivo, Salsola kali; settings: application rate a.i.: I.1 31.25 g/ha, B.84 (paraquat-dichloride) 17.5 g/ha, alone or as mixture (composition 1.84)
Procedure: (§1) The culture containers used were plastic pots containing medium loamy sand with approximately 4.6% of humus and 69.9% sand as substrate. The seeds of the test plants were sown separately for each species.
(§2) For the post-emergence treatment, the test plants were grown to a plant height of from 1 to 15 cm, depending on the plant habit, and only then treated with the active compounds which had been suspended or emulsified in water. To this end, the test plants were either sown directly, and grown in the same containers, or they were first grown separately as seedlings and transplanted into the test containers a few days prior to treatment.
(§3) Depending on the species, the plants were kept at 10-25° C. and 20-35° C., respectively.
(§4) The test period extended over 1 to 3 weeks. During this time, the plants were tended and their response to the individual treatments was evaluated 20 days after treatment except mentioned otherwise.
(§5) Evaluation was carried out using a scale from 0 to 100. 100 means no emergence of the plants, or complete destruction of at least the above-ground parts, and 0 means no damage or normal course of growth.
(§6) The respective stated components A and B, and, if appropriate, C, were formulated as a 10% by weight strength emulsion concentrate and, with addition of the amount of solvent system, introduced into the spray liquor used for applying the active compound. In the examples, the solvent used was water.
(§7) In the examples below, using the method of S. R. Colby (1967) “Calculating synergistic and antagonistic responses of herbicide combinations”, Weeds 15, p. 22 ff., the value E, which is expected if the activity of the individual active compounds is only additive, was calculated. E=X+Y−(X·Y/100)

POLCO = format: in vivo, Polygonum convolvulus; parameters: key to herbicidal activity against POLCO found: rating on a scale from 0 to 100; settings: post emergence
Summary of the method: (§8)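 Herbicidal activity scored on a 0 (no damage) to 100 (plants destroyed) scale, usually 20 days after water-based spraying of 1–15 cm plants grown in loamy sand at 10-25 °C or 20-35 °C depending on species. Components were applied from 10% emulsion concentrates; Colby's E=X+Y−(X·Y/100) gives the additive expectation.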

ERICA = format: in vivo, Conyza canadensis; parameters: key to herbicidal activity against ERICA found: rating on a scale from 0 to 100; settings: post emergence
Summary of the method: (§9)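 Seeds sown per species in loamy sand with roughly 4.6% humus; seedlings raised to 1 to 15 cm, then treated with water-borne spray of a 10% by weight emulsion concentrate. Response assessed on day 20 from 0 (normal growth) to 100 (destroyed).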

GALAP = format: in vivo, Galium aparine; parameters: key to herbicidal activity against GALAP found: rating on a scale from 0 to 100; settings: post emergence
Summary of the method: as §8

CONAR = format: in vivo, Convolvulus arvensis; parameters: key: rating on a scale from 0 to 100
Procedure: as §1, §2, §3, §4, §5, §6, §7

VIOAR = format: in vivo, Viola arvensis; settings: post emergence, B.84 (paraquat-dichloride) 17.5 g/ha, alone or as mixture (composition 1.84)
Summary of the method: as §8

MATCH = format: in vivo, Matricaria recutita; settings: post emergence; application rate a.i.: I.1 62.5 g/ha, B.84 (paraquat-dichloride) 17.5 g/ha, alone or as mixture (composition 1.84)
Summary of the method: as §9

AMBEL = format: in vivo, Ambrosia artemisiifolia; settings: application rate a.i.: I.1 31.25 g/ha, B.84 (paraquat-dichloride) 17.5 g/ha, alone or as mixture (composition 1.84)
Procedure: as §1, §2, §3, §4, §5, §6, §7

DIGSA = format: in vivo, Digitaria sanguinalis
Procedure: as §1, §2, §3, §4, §5, §6, §7

GERDI = format: in vivo, Geranium dissectum; parameters: key to herbicidal activity against GERDI found: rating on a scale from 0 to 100; settings: post emergence; application rate a.i.: I.1 250 g/ha, B.193 15 g/ha, alone or as mixture (composition 1.193)
Summary of the method: as §9

ALOMY = format: in vivo, Alopecurus myosuroides; parameters: key to herbicidal activity against ALOMY found: rating on a scale from 0 to 100; settings: post emergence; application rate a.i.: I.1 250 g/ha, B.193 15 g/ha, alone or as mixture (composition 1.193)
Summary of the method: as §9

ECHCG = format: in vivo, Echinochloa crus-galli; parameters: key to herbicidal activity against ECHCG found / herbicidal activity against ECHCH found: scale 0 to 100; settings: post emergence; application rate a.i.: I.1 250 g/ha, B.193 15 g/ha, alone or as mixture (composition 1.193)
Summary of the method: as §9

AMARE = format: in vivo, Amaranthus retroflexus; settings: a.i. g/ha: I.1 31.25, bentazon Na 125, 20 days after treatment
Procedure: as §1, §2, §3, §4, §5, §6, §7

POLAV = format: in vivo, Polygonum aviculare; parameters: key: rating on a scale from 0 to 100; settings: a.i. g/ha: I.1 31.25, bentazon Na 125, 20 days after treatment
Procedure: as §1, §2, §3, §4, §5, §6, §7

LOLMU = format: in vivo, Lolium multiflorum; settings: a.i. g/ha: I.1 62.5, B.77 75, 20 days after treatment
Procedure: as §1, §2, §3, §4, §5, §6, §7

[1] = application rate a.i.: I.1 62.5 g/ha, B.84 (paraquat-dichloride) 17.5 g/ha, alone or as mixture (composition 1.84)
[2] = application rate a.i.: I.1 31.25 g/ha, B.84 (paraquat-dichloride) 17.5 g/ha, alone or as mixture (composition 1.84)
[3] = a.i. g/ha: I.1 62.5, B.80 250, 20 days after treatment
[4] = a.i. g/ha: I.1 62.5, B.77 75, 20 days after treatment

## C[n+]1ccc(-c2cc[n+](C)cc2)cc1 [B.84, paraquat-dichloride]
SASKR
  herbicidal activity against SASKR found: 70
POLCO; [1]
  herbicidal activity against POLCO found: 30
ERICA; [2]
  herbicidal activity against ERICA found: 35
GALAP; [2]
  herbicidal activity against GALAP found: 55
CONAR; [1]
  herbicidal activity against CONAR found: 10
VIOAR; application rate a.i.: I.1 31.25 g/ha
  herbicidal activity against VIOAR found: 55
VIOAR; application rate a.i.: I.1 62.5 g/ha
  herbicidal activity against VIOAR found: 55
MATCH
  herbicidal activity against MATCH found: 80
AMBEL
  herbicidal activity against AMBEL found: 90

## Cc1ccccc1CO[C@H]1C[C@]2(C(C)C)CC[C@@]1(C)O2 (racemic) [B.193]
DIGSA; application rate a.i.: I.1 250 g/ha, B.193 15 g/ha, alone or as mixture (composition 1.193)
  herbicidal activity against DIGSA found: 20
GERDI
  herbicidal activity against GERDI found: 40
ALOMY
  herbicidal activity against ALOMY found: 0
ECHCG
  herbicidal activity against ECHCG found: 40

## CCC(=O)Nc1ccc(Cl)c(Cl)c1 [B.80, propanil]
DIGSA; [3]
  herbicidal activity against DIGSA found: 40%
ERICA; [3]
  herbicidal activity against ERICA found: 65%
CONAR; [3]
  herbicidal activity against CONAR found: 20%

## CC(C)N1C(=O)c2ccccc2[N-]S1(=O)=O.[Na+] [bentazon Na, bentazon-sodium]
POLCO; a.i. g/ha: I.1 31.25, bentazon Na 125, 20 days after treatment
  herbicidal activity against POLCO found: 40%
AMARE
  herbicidal activity against AMARE found: 75%
POLAV
  herbicidal activity against POLAV found: 40%

## CON(C)C(=O)Nc1ccc(Cl)c(Cl)c1 [B.77, linuron]
LOLMU
  herbicidal activity against LOLMU found: 35%
GALAP; [4]
  herbicidal activity against GALAP found: 40%
CONAR; [4]
  herbicidal activity against CONAR found: 50%
